Values quoted from earlier work as cited in patent US20170151152A1, “COMBINATION OF N-ACETYL GLUCOSAMINE WITH ABSCISIC ACID AND USES THEREOF” (priority 2015, published 2017).

System: cell cultures
Settings: 1%, 3%, 5% of 30 μL of NAG

SMILES: CC(=O)N[C@H]1C(O)O[C@H](CO)[C@@H](O)[C@@H]1O (stereo partly shown) [NAG, N-acetyl glucosamine]
- melanin in cell cultures: dose dependent decrease in melanin
